The source made the active and inactive calls. The rule behind the calls is not given here.
How the values were obtained:
[1] = target: T1, Bromodomain-containing protein 4 (Homo sapiens, UniProt O60885); test: Inhibition of BRD4 (unknown origin) by fluorescence polarization assay
[2] = target: CREB-binding protein (Homo sapiens, UniProt Q92793); test: Inhibition of CREBBP (unknown origin) by FRET assay
[3] = species: Homo sapiens; test: Selectivity ratio of IC50 for BRD4 (unknown origin) to IC50 for CREBBP (unknown origin)
[4] = target: T1, Bromodomain-containing protein 4; test: Inhibition of human BRD4 by fluorescence polarization assay
[5] = Lipophilicity, log D of the compound at pH 7.4 by shake flask method; assay type: physicochemical; conditions: buffer
[6] = Passive permeability of the compound at 2 uM by cell-based assay; assay type: physicochemical; conditions: not told; read-out: permeability
[7] = target: Histone acetyltransferase p300 (Homo sapiens) (UniProt Q09472); test: Inhibition of human EP300 (1040 to 1161 residues) expressed in bacterial expression system at 10 uM by bromoscan assay
Histone acetyltransferase p300 (Homo sapiens), sequence (Q09472 whole entry, the tested form may be a part): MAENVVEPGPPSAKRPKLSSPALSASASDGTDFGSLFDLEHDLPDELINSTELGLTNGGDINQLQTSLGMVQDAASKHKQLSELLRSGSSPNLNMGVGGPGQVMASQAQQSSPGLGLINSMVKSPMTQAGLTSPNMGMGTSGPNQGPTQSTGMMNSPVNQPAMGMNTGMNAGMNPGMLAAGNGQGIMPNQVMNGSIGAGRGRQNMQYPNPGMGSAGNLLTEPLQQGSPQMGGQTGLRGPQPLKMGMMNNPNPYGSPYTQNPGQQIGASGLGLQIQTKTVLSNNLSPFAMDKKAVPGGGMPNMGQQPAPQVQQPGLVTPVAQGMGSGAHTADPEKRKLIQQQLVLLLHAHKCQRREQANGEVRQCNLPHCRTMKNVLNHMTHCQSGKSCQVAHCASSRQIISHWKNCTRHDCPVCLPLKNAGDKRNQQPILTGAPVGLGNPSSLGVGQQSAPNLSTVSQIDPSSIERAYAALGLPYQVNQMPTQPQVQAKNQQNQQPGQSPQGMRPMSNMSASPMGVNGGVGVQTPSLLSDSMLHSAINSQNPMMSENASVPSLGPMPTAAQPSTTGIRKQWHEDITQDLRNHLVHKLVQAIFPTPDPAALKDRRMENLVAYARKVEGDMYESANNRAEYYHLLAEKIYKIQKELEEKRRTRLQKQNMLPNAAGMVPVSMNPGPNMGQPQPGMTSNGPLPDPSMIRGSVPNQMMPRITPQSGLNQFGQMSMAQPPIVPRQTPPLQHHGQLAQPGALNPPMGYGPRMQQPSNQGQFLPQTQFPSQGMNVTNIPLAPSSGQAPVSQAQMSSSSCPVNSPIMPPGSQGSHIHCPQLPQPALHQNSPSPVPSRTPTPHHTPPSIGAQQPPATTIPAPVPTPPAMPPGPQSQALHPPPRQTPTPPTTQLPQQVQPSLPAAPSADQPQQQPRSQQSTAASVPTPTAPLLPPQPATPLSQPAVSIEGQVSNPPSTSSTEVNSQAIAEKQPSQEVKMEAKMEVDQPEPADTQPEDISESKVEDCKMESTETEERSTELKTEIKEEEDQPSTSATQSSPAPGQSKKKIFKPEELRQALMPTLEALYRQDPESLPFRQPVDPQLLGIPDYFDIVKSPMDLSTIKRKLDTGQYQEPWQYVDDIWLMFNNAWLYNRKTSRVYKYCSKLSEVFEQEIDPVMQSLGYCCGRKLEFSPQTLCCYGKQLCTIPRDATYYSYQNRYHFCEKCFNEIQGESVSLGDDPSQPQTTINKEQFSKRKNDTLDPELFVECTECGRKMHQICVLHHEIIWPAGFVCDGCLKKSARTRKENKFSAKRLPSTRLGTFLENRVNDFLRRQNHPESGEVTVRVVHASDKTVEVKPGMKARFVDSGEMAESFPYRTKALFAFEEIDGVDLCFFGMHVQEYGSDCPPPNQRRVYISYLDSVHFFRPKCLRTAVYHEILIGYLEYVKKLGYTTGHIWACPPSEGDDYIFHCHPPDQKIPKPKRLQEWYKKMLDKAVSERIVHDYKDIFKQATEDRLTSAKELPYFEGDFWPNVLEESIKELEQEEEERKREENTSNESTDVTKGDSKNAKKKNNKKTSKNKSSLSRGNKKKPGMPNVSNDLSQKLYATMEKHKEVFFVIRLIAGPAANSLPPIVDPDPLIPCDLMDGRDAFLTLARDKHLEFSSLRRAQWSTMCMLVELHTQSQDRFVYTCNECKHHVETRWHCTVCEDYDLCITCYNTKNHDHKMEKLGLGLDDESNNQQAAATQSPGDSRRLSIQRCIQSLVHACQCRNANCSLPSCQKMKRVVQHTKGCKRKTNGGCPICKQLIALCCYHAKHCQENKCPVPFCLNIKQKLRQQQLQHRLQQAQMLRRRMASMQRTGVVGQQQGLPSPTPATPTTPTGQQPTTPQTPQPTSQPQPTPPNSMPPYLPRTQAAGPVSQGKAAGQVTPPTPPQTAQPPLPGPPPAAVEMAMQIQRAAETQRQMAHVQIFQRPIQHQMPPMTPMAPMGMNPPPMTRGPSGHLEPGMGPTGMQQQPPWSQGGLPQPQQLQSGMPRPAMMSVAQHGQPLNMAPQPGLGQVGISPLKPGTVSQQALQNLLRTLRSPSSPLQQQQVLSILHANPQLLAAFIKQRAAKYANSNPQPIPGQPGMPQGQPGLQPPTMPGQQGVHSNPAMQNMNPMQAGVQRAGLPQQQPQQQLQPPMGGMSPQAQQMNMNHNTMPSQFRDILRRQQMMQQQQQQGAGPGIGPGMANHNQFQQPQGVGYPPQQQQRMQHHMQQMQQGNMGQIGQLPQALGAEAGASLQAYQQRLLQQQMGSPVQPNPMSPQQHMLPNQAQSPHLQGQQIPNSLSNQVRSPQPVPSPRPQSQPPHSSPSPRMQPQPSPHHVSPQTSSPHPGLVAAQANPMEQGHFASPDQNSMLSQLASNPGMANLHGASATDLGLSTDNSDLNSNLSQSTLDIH

[8] = target: T1, Bromodomain-containing protein 4; test: Binding affinity to BRD4 (unknown origin) at 75 to 100 uM by isothermal titration assay
[9] = target: Voltage-gated L-type calcium channel (Homo sapiens, UniProt Q13936+Q13698+Q01668+O60840); test: Inhibition of L-type calcium channel (unknown origin)
[10] = Intrinsic clearance in human microsomes at 1 uM; assay type: ADME, Microsome
[11] = target: T2, Alpha-1A adrenergic receptor (Homo sapiens, UniProt P35348); test: Displacement of [3H]prazosin from recombinant human adrenergic A1a receptor after 60 mins by scintillation counting method
T2 sequence (P35348 whole entry): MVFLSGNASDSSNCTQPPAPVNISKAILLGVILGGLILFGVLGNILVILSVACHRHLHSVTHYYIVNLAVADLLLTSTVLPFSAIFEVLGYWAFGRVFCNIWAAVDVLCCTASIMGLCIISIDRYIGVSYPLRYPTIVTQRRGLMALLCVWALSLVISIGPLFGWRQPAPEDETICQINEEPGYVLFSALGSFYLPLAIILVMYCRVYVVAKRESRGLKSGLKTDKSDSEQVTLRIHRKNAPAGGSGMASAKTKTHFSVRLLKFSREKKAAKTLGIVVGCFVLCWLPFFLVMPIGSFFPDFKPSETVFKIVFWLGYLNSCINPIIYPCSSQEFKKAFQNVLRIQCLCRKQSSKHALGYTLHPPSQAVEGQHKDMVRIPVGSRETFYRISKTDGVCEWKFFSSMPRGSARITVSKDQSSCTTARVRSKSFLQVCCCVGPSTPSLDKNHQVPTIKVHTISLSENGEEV

CREB-binding protein, sequence (Q92793 whole entry): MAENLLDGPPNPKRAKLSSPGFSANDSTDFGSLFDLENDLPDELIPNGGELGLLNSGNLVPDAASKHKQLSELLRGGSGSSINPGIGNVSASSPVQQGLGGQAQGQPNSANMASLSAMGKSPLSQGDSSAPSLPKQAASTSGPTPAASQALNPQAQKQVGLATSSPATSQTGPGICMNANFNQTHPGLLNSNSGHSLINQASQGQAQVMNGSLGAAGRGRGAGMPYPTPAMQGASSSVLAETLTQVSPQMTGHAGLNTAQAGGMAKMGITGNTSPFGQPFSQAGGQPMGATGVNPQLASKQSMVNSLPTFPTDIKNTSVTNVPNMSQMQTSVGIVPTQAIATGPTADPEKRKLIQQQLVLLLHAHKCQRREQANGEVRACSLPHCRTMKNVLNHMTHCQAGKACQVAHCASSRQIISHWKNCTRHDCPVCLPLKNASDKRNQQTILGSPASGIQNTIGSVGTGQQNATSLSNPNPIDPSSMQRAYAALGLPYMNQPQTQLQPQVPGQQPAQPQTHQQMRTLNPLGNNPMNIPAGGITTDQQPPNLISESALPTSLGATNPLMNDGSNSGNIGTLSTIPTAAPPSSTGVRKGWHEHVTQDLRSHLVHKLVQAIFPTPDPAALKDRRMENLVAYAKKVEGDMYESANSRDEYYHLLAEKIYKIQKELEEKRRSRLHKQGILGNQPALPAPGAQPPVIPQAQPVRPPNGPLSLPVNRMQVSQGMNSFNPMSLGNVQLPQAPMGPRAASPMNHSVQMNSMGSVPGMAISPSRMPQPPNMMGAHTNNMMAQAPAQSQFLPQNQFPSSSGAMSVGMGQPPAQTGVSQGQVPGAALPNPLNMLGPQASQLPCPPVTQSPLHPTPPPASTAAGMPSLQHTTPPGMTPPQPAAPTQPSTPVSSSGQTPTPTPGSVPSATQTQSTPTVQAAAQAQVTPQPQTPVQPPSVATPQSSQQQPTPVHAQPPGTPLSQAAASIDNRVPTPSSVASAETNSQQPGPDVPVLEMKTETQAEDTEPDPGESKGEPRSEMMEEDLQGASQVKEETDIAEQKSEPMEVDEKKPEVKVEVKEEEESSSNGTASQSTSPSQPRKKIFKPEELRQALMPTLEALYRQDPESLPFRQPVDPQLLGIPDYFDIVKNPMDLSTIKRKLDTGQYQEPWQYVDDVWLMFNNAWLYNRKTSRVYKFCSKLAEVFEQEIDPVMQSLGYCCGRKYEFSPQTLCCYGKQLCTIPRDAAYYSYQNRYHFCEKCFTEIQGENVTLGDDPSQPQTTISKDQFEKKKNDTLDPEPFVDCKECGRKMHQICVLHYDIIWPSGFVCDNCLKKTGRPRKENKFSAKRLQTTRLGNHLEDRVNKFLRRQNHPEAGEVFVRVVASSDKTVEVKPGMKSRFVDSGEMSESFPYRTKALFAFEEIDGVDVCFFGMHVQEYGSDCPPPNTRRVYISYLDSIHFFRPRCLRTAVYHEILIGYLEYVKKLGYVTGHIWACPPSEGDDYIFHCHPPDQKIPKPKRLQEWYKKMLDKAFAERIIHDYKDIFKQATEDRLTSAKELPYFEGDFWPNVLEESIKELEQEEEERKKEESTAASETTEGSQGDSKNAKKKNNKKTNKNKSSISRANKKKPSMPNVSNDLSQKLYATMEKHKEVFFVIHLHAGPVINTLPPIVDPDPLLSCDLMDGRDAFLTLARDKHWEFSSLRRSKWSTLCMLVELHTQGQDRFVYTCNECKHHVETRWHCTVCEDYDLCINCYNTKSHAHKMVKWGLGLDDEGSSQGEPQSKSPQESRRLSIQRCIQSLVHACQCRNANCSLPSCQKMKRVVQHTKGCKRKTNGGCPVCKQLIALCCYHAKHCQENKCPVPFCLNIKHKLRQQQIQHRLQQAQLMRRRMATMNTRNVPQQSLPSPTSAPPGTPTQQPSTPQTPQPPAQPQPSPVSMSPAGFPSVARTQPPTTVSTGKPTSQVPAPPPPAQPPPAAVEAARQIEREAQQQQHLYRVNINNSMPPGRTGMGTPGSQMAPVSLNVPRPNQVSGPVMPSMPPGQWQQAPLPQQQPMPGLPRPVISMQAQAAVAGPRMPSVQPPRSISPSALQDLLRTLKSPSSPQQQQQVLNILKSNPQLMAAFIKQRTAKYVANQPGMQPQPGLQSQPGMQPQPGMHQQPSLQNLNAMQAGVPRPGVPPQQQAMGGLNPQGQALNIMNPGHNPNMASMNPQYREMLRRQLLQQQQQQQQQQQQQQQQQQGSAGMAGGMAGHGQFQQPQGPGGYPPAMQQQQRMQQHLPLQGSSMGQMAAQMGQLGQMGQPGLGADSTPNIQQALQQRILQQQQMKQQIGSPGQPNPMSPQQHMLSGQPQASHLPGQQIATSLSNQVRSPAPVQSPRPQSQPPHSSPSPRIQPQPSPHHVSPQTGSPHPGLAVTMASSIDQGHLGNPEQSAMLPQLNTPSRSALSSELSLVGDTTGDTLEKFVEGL

Molecule `Cc1noc(C)c1-c1ccc2c(c1)nc1n2[C@H](CN2CCOCC2)CC1Cc1ccccc1` (single isomer, unassigned; 32) [listing 1 of 2 here] has an IC50 [1] of over 80000 nM and an IC50 [2] of 1300 nM.
Molecule `Cc1noc(C)c1-c1ccc2c(c1)nc(CCc1cncc3ccccc13)n2CCN1CCOCC1` has an IC50 [1] of 16800 nM, an IC50 [2] of 2500 nM and a Ratio IC50 [3] of 7.
With `COc1ccc(CCc2nc3cc(-c4c(C)noc4C)ccc3n2CCN2CCOCC2)cc1OC` the IC50 [1] was 9400 nM, the IC50 [2] was 470 nM and the Ratio IC50 [3] was 20.
Work on `CCc1noc(C)c1-c1ccc2c(c1)nc(CCc1ccccc1)n2CCN1CCOCC1` yielded an IC50 [1] of 6000 nM and an IC50 [2] of 310 nM.
In the case of `CCCCCOc1ccc(CCc2nc3cc(-c4c(C)noc4C)ccc3n2CCN2CCOCC2)cc1`, the IC50 [1] is reported as 6900 nM, the IC50 [2] is reported as 690 nM and the Ratio IC50 [3] is reported as 10.
Molecule `COc1ccc(OCc2nc3cc(-c4c(C)noc4C)ccc3n2CCN2CCOCC2)cc1` has an IC50 [1] of 9200 nM, an IC50 [2] of 920 nM and a Ratio IC50 [3] of 10.
Work on `COc1ccc(CCc2nc3cc(-c4c(C)noc4C)ccc3n2C[C@H](C)N2CCOCC2)cc1Cl` yielded an IC50 [4] of 5850 nM.
Molecule `CC(=O)Nc1ccc(CCc2nc3cc(-c4c(C)noc4C)ccc3n2CCN2CCOCC2)cc1` has an IC50 [1] of 1400 nM, an IC50 [2] of 200 nM and a Ratio IC50 [3] of 7.
For `Cc1noc(C)c1-c1ccc2c(c1)nc(CCc1ccccc1)n2CCN1CCOCC1`, the IC50 [1] was 4100 nM, the IC50 [2] was 240 nM and the Ratio IC50 [3] was 17.
In the case of `CCCCOc1ccc(CCc2nc3cc(-c4c(C)noc4C)ccc3n2CCN2CCOCC2)cc1`, the IC50 [1] is reported as 11200 nM, the IC50 [2] is reported as 260 nM and the Ratio IC50 [3] is reported as 43.
`COc1ccc(CCc2cc3nc(-c4c(C)noc4C)ccc3n2CCN2CCOCC2)cc1` gave an IC50 [1] of 18400 nM, a logD [5] of 3.29 and a Papp at 2 µM [6] of 6.8 ×10⁻⁶ cm/s. For the same molecule, the inhibition [7] was “Active”, the IC50 [2] was 170 nM and the Ratio IC50 [3] was over 100.
For `Cc1noc(C)c1-c1ccc2c(c1)nc(CCc1ccc(OC(F)(F)F)cc1)n2CCN1CCOCC1`, the IC50 [1] was 18500 nM.
With `Cc1noc(C)c1-c1ccc2c(c1)nc(CCc1ccc(N)cc1)n2CCN1CCOCC1` the IC50 [1] was 3400 nM, the IC50 [2] was 90 nM and the Ratio IC50 [3] was 38.
In the case of `Cc1noc(C)c1-c1ccc2c(c1)nc1n2[C@H](CN2CCOCC2)CC1Cc1ccccc1` (single isomer, unassigned; 31) [listing 1 of 2 here], the IC50 [1] is reported as 2000 nM and the IC50 [2] is reported as 450 nM.
Molecule `COc1ccc(CCc2c(C#N)c3cc(-c4c(C)noc4C)ccc3n2CCN2CCOCC2)cc1` has an IC50 [1] of over 120000 nM, an IC50 [2] of 500 nM and a Ratio IC50 [3] of over 240.
With `Cc1noc(C)c1-c1ccc2c(c1)nc(CCc1ccc(N(C)C)cc1)n2CCN1CCOCC1` the IC50 [1] was 4300 nM, the IC50 [2] was 210 nM and the Ratio IC50 [3] was 20.
`Cc1noc(C)c1-c1ccc2c(c1)nc(CCc1ccccn1)n2CCN1CCOCC1` showed an IC50 [1] of 3200 nM, an IC50 [2] of 330 nM and a Ratio IC50 [3] of 10.
With `Cc1noc(C)c1-c1ccc2c(c1)nc1n2[C@H](CN2CCOCC2)CC1Cc1ccccc1` (single isomer, unassigned; 32) [listing 2 of 2 here] the Ratio IC50 [3] was over 62.
For `Cc1noc(C)c1-c1ccc2c(c1)nc(CCc1c[nH]c3ccccc13)n2CCN1CCOCC1`, the IC50 [1] was 10100 nM, the IC50 [2] was 740 nM and the Ratio IC50 [3] was 14.
With `Cc1noc(C)c1-c1ccc2c(c1)nc(CCc1ccc(OC(C)C)cc1)n2CCN1CCOCC1` the IC50 [1] was 4500 nM, the IC50 [2] was 200 nM and the Ratio IC50 [3] was 23.
`CCn1cc(-c2ccc3c(c2)nc(CCc2ccccc2)n3CCN2CCOCC2)ccc1=O` showed an IC50 [1] of 3900 nM and an IC50 [2] of 500 nM.
For `CCOc1ccc(CCc2nc3cc(-c4c(C)noc4C)ccc3n2CCN2CCOCC2)cc1`, the IC50 [1] was 6600 nM, the IC50 [2] was 130 nM and the Ratio IC50 [3] was 51.
Molecule `Cc1noc(C)c1-c1ccc2c(c1)nc(CCc1ccc(C#N)cc1)n2CCN1CCOCC1` has an IC50 [1] of 4900 nM, an IC50 [2] of 300 nM and a Ratio IC50 [3] of 16.
`Cc1noc(C)c1-c1ccc2c(c1)nc([C@@H]1CCO[C@H]1c1ccccc1)n2CCN1CCOCC1` gave an IC50 [1] of 490 nM, an IC50 [2] of 76 nM and a Ratio IC50 [3] of 6.
For `Cc1noc(C)c1-c1ccc2c(c1)nc(COc1ccccc1)n2CCN1CCOCC1`, the IC50 [1] was 14400 nM, the IC50 [2] was 400 nM and the Ratio IC50 [3] was 36.
Work on `Cc1noc(C)c1-c1ccc2c(c1)nc(CCc1cccnc1)n2CCN1CCOCC1` yielded an IC50 [1] of 5800 nM, an IC50 [2] of 780 nM and a Ratio IC50 [3] of 7.4.
`COc1ccc(CCc2nc3cc(-c4c(C)noc4C)ccc3n2CCN2CCOCC2)c(OC)c1` showed an IC50 [1] of 8300 nM, an IC50 [2] of 240 nM and a Ratio IC50 [3] of 35.
With `Cc1noc(C)c1-c1ccc2c(c1)nc(CCc1ccc3ccccc3n1)n2CCN1CCOCC1` the IC50 [1] was 4900 nM, the IC50 [2] was 160 nM and the Ratio IC50 [3] was 31.
`Cc1noc(C)c1-c1ccc2c(c1)nc(CCc1ccncc1)n2CCN1CCOCC1` gave an IC50 [1] of 4100 nM, an IC50 [2] of 400 nM and a Ratio IC50 [3] of 10.
`Cc1noc(C)c1-c1ccc2c(c1)nc1n2[C@H](CN2CCOCC2)CC1Cc1ccccc1` (single isomer, unassigned; 31) [listing 2 of 2 here] showed a Ratio IC50 [3] of 4.
`Cc1noc(C)c1-c1ccc2c(c1)nc(-c1cnn3c1CCC3)n2CCN1CCOCC1` gave an IC50 [1] of 1600 nM, an IC50 [2] of 130 nM and a Ratio IC50 [3] of 12.
For `COc1ccccc1CCc1nc2cc(-c3c(C)noc3C)ccc2n1CCN1CCOCC1`, the IC50 [1] was 13900 nM, the IC50 [2] was 980 nM and the Ratio IC50 [3] was 14.
`Cc1noc(C)c1-c1ccc2c(c1)nc(CCc1ccccc1)n2CC(=O)N1CCOCC1` gave an IC50 [1] of 13200 nM, an IC50 [2] of 360 nM and a Ratio IC50 [3] of 37.
`COc1cc(-c2ccc3c(c2)nc(CCc2ccccc2)n3CCN2CCOCC2)cccc1=O` showed an IC50 [1] of 350 nM and an IC50 [2] of 210 nM.
In the case of `COc1ccc([C@H]2OCC[C@@H]2c2nc3cc(-c4c(C)noc4C)ccc3n2CCN2CCOCC2)cc1`, the IC50 [1] is reported as 9400 nM, the IC50 [2] is reported as 140 nM and the Ratio IC50 [3] is reported as 67.
In the case of `Cc1nc(C)n(-c2ccc3c(c2)nc(CCc2ccccc2)n3CCN2CCOCC2)n1`, the IC50 [1] is reported as over 120000 nM and the IC50 [2] is reported as over 30000 nM.
For `Cc1n[nH]c(C)c1-c1ccc2c(c1)nc(CCc1ccccc1)n2CCN1CCOCC1`, the IC50 [1] was over 10000 nM and the IC50 [2] was 2400 nM.
`COc1ccc(CCc2cc3cc(-c4c(C)noc4C)ccc3n2CCN2CCOCC2)cc1` showed an IC50 [1] of over 120000 nM and an IC50 [2] of 1500 nM.
In the case of `CCCOc1ccc(CCc2nc3cc(-c4c(C)noc4C)ccc3n2CCN2CCOCC2)cc1`, the Papp at 2 µM [6] is reported as 7.9 ×10⁻⁶ cm/s, the Activity [8] is reported as “inactive” and the inhibition [7] is reported as “Active”. For the same molecule, the IC50 [9] was 3000 nM, the Ratio IC50 [3] was 62 and the microsomal CLint at 1 µM [10] was over 300 µL/min/mg. For the same molecule, the IC50 [11] was 620 nM.
Molecule `COc1cccc(CCc2nc3cc(-c4c(C)noc4C)ccc3n2CCN2CCOCC2)c1` has an IC50 [1] of 4600 nM, an IC50 [2] of 310 nM and a Ratio IC50 [3] of 15.

Reference: ChEMBL document CHEMBL4011614 (J Med Chem, 2017)
